Results from PMC12111632, “Expression, purification and preliminary pharmacological characterization of the Plasmodium falciparum membrane-bound pyrophosphatase type 1” (PLOS One, 2025).
Counter-ions that a name gives are not always drawn. Like-named read-outs stand apart in the source and are kept apart here.

Key:
PfPPase-VP1 = PfPPase-VP1 (Plasmodium falciparum, UniProt Q8IKR1); assay: biochemical
Experimental: The activity of PfPPase-VP1 was determined using a molybdenum blue colorimetric activity assay in 96-well plate format to measure the amount of phosphate production, as previously described for TmPPase but with modifications to pH (5.2–10) and temperature conditions (20–70°C) as described below. To determine the optimal pH for PfPPase-VP1 activity, 5 μL of 2.5 mg/mL total membrane protein was added to the reaction mixture (60 mM of various buffers (below) with pHs ranging from 5.2–10.0, 3 mM MgCl2, 100 mM KCl, and 10 mM NaCl, 100 mM NaF, 5 μM Gramicidin D), to a final volume of 40 μL. Buffers were trisodium-citrate (pH 5.2), MES (pH 6.5), Tris-HCl (pH 6.8, 7.5, 8.0, and 8.8) and glycine-NaOH (pH 10.0). A control sample was prepared by heating the membrane faction at 90 °C for 5 min to inactivate the enzyme. The reaction mixture was incubated at 30 °C for 5 min in a 96-well heating block. After incubation, 10 µl of 2 mM sodium pyrophosphate (PPi) was added, mixed, and incubated for 10 min. The reaction was stopped by adding 60 μL of premixed solution A (0.3 g ascorbic acid in 10 mL of 0.5 M cold HCl) and solution B (70 mg of ammonium heptamolybdate tetrahydrate in 1 mL of cold milli-Q water) and incubating on ice for 1 h. Finally, 90 μL sodium arsenite solution (5 g sodium arsenite, 5 g trisodium citrate dihydrate and 5 mL of iced-acetic acid in 250 mL milli-Q water) was added and incubated at RT for 30 min. Absorbance was measured at 860 nm on a MultiSkan Go UV/Vis spectrophotometer (Thermo Scientific). The specific activity of PfPPase-VP1 in the membrane was calculated using our previously published formula [23]. 60 mM Tris-Cl (pH 7.5) buffer was then selected for optimization of the reaction temperature (RT, 30 °C, 40 °C, 50 °C, 60 °C and 70 °C) by repeating the assay as described above. […] For the activity assay of purified PfPPase-VP1, 0.15 μg of the enzyme in the optimized detergent solution was mixed with 0.8 μL of 20 mg/mL liposomes (soybean lecithin) and then reaction buffer (60 mM Tris-HCl (pH 7.5), 3 mM MgCl2, 100 mM KCl, and 10 mM NaCl) was added to a total volume of 40 μL. The reaction mixture was preheated at 50 °C for 5 min before adding 10 µl of 2mM PPi and mixing. The catalytic reaction was run for 45 min at 50 °C, and the phosphate production was determined as described above. IDP, a known mPPase competitive inhibitor [35], was used as a positive control to validate the assay for inhibitor screening.
The 35 compounds used in this study were pre-dissolved in dimethyl sulfoxide (DMSO) at concentrations of 25–50 mM.
IDP was used in parallel as a positive control. Each concentration of the test compounds was tested in triplicate.

TmPPase [1] = target: T1, TmPPase (Thermotoga maritima, UniProt Q9S5X0); assay: TmPPase inhibition assay (96-well molybdenum blue colorimetric phosphate assay); format: biochemical; set-up: made in house
T1 sequence (Q9S5X0 1-726): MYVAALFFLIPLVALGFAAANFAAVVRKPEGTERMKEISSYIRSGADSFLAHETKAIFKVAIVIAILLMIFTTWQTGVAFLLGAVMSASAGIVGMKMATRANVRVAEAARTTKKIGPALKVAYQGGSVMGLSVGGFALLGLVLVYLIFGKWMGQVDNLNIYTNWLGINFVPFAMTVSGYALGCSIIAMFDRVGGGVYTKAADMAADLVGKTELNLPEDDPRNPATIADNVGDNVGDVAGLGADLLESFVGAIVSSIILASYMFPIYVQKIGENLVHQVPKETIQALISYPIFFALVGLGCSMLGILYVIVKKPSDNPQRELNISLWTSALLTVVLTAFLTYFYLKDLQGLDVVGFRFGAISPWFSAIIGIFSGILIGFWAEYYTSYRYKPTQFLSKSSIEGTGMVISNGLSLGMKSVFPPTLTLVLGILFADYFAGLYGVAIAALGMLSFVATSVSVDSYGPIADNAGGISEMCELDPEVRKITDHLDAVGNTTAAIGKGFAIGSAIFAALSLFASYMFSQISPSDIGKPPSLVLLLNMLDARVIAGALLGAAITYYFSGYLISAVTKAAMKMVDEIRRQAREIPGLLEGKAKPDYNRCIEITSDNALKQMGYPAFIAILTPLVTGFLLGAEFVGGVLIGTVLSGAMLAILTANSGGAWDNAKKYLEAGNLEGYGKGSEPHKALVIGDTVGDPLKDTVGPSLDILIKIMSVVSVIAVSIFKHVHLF

TmPPase [2] = target: T1, TmPPase; set-up: made in house; host or cells: S. cerevisiae; conditions: cited from earlier work
[3] = purified PfPPase-VP1 reconstituted in liposomes, Tris-HCl pH 7.5, 50 °C, 45 min, triplicate, interval given
[4] = interval given, read-out: IC50 (TmPPase)

PfPPase-VP1, sequence (Q8IKR1 entry or part of it): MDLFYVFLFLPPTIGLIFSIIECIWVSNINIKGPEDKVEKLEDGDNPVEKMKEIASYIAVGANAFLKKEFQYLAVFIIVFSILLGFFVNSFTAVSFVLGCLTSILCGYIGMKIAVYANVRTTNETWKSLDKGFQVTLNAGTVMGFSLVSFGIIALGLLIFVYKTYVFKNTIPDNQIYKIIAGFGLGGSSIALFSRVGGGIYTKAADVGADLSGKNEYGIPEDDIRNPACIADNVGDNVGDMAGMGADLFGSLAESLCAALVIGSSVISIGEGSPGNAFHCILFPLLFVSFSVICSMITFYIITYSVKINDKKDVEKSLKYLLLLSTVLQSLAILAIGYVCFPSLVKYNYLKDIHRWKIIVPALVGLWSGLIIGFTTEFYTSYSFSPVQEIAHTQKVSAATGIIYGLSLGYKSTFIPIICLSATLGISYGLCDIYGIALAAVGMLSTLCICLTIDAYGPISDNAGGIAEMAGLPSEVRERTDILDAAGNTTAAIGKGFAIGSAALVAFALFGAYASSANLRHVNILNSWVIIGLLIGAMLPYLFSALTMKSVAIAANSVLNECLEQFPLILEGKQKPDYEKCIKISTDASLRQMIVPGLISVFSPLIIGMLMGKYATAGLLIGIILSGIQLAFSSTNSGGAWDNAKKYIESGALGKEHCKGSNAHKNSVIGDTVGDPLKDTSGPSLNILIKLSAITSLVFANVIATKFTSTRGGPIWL

Row | SMILES | IC50 (PfPPase, μM) (PfPPase-VP1; [3]) | IC50 (TmPPase, μM) (TmPPase [1]) | further results
1 | C[C@@H]1CC[C@H]2[C@@H](C)C(=O)O[C@@H]3O[C@@]4(C)CC[C@@H]1[C@]32OO4 [Compound 1, Artemisinin] | Inactive | Inactive | –
2 | N=C(N)c1ccc(-c2ccc(-c3ccc(C(=N)N)cc3)o2)cc1 [Compound 2, Furamidine dihydrochloride] | – | Inactive | IC50 (PfPPase-VP1): 190 µM
3 | N=C(N)c1ccc(OCCCCCOc2ccc(C(=N)N)cc2)cc1 [Compound 3, Pentamidine isethionate] | – | Inactive | –
4 | CC1(C)N=C(N)N=C(N)N1c1ccc(Cl)cc1 [Compound 4, Cycloguanil hydrochloride] | Inactive | Inactive | –
5 | OC(c1cc(C(F)(F)F)nc2c(C(F)(F)F)cccc12)C1CCCCN1 (stereo not drawn) [Compound 5, Mefloquine hydrochloride] | – | Inactive | –
6 | [H]/N=C(\N/C(=N/[H])Nc1ccc(Cl)cc1)NC(C)C [Compound 6, Proguanil hydrochloride] | Inactive | Inactive | –
7 | C[C@H]1c2cccc(O)c2C(=O)C2=C(O)[C@]3(O)C(=O)C(C(N)=O)=C(O)[C@@H](N(C)C)[C@@H]3[C@@H](O)[C@@H]21 [Compound 7, Doxycyline monohydrate] | Inactive | Inactive | –
8 | O=C1C(O)=C([C@H]2CC[C@H](c3ccc(Cl)cc3)CC2)C(=O)c2ccccc21 [Compound 8, Atovaquone] | Inactive | Inactive | –
9 | O=CN(O)CCCP(=O)(O)O [Compound 9, Fosmidomycin] | Inactive | Inactive | –
10 | CC(=O)N(O)CCCP(=O)(O)O [Compound 10, FR900098 (sodium salt)] | Inactive | Inactive | –
11 | CCN(CC)CCCC(C)Nc1ccnc2cc(Cl)ccc12 (stereo not drawn) [Compound 11, Chloroquine] | Inactive | Inactive | –
12 | CCN(CC)CCCC(C)Nc1ccnc2cc(Cl)ccc12 (stereo not drawn) [Compound 12, Chloroquine diphospate salt] | Inactive | Inactive | –
13 | CCN(CCO)CCCC(C)Nc1ccnc2cc(Cl)ccc12 (stereo not drawn) [Compound 13, Hydroxychloroquine sulfate] | Inactive | Inactive | –
14 | CCN(CCO)CCCC(C)Nc1ccnc2cc(Cl)ccc12 (stereo not drawn) [Compound 14, Hydroxychloroquine] | Inactive | Inactive | –
15 | CCOC(=O)c1cc(-c2ccc(OC)c(S(=O)(=O)N3CCCSc4ccccc43)c2)on1 [Compound 15] | Inactive | – | –
16 | COc1cc(C2c3c(-c4cc(Cl)c(C)cc4O)n[nH]c3C(=O)N2Cc2ccccc2)ccc1O (stereo not drawn) [Compound 16] | Inactive | – | IC50 (TmPPase [2]; [4]): 33 µM
17 | Cc1cc(C)cc(-c2cc(C(=O)Oc3ccccc3Br)no2)c1 [Compound 17] | Inactive | – | IC50 (TmPPase [2]; [4]): 6.7 µM
18 | CC(C)(C)c1cc(-c2cc(C(=O)Oc3ccccc3Br)no2)cc(C(C)(C)C)c1 [Compound 18] | Inactive | – | IC50 (TmPPase [2]; [4]): 10 µM
19 | C=Cc1cc2nc(C(=O)O)cc(-c3cc(C)cc(C)c3)n2n1 [Compound 19] | – | – | IC50 (TmPPase [2]; read-out: IC50 against TmPPase): < 20 µM
20 | C=Cc1cc2nc(C(=O)Oc3ccccc3Br)cc(-c3cc(C)cc(C)c3)n2n1 [Compound 20] | – | – | IC50 (TmPPase [2]; read-out: IC50 against TmPPase): < 20 µM
21 | O=P(O)(O)NP(=O)(O)O [IDP, imidodiphosphate] | – | – | IC50 (PfPPase-VP1; purified PfPPase-VP1 reconstituted in liposomes, Tris-HCl pH 7.5, 50 °C, 45 min, triplicate, interval given, read-out: IC50 (PfPPase)): 175 µM
